# Experimental data: ChEMBL document CHEMBL3301458, “MMV Malaria Box hERG screening”
# Calls of active or inactive are those of the source. No rule for the calls is given here.
# Assays:
# [1] = biological target: T1, hERG (Kv11.1, KCNH2) (Homo sapiens, UniProt Q12809); experiment: in vitro
# Description: MMV: Malaria Box compounds were tested for inhibition of the human ether a go-go related gene (hERG), Kv11.1 channel, using IonWorks 384-well patch clamp electrophysiology at 1.1uM (3 independent assay plates up to 12 cells per concentration).
# [2] = biological target: T1, hERG (Kv11.1, KCNH2); experiment: in vitro; remark: listed apart in the source
# Description: MMV: Malaria Box compounds were tested for inhibition of the human ether a go-go related gene (hERG), Kv11.1 channel, using IonWorks 384-well patch clamp electrophysiology at 11.1uM (3 independent assay plates up to 12 cells per concentration).
# T1 sequence (Q12809 whole entry): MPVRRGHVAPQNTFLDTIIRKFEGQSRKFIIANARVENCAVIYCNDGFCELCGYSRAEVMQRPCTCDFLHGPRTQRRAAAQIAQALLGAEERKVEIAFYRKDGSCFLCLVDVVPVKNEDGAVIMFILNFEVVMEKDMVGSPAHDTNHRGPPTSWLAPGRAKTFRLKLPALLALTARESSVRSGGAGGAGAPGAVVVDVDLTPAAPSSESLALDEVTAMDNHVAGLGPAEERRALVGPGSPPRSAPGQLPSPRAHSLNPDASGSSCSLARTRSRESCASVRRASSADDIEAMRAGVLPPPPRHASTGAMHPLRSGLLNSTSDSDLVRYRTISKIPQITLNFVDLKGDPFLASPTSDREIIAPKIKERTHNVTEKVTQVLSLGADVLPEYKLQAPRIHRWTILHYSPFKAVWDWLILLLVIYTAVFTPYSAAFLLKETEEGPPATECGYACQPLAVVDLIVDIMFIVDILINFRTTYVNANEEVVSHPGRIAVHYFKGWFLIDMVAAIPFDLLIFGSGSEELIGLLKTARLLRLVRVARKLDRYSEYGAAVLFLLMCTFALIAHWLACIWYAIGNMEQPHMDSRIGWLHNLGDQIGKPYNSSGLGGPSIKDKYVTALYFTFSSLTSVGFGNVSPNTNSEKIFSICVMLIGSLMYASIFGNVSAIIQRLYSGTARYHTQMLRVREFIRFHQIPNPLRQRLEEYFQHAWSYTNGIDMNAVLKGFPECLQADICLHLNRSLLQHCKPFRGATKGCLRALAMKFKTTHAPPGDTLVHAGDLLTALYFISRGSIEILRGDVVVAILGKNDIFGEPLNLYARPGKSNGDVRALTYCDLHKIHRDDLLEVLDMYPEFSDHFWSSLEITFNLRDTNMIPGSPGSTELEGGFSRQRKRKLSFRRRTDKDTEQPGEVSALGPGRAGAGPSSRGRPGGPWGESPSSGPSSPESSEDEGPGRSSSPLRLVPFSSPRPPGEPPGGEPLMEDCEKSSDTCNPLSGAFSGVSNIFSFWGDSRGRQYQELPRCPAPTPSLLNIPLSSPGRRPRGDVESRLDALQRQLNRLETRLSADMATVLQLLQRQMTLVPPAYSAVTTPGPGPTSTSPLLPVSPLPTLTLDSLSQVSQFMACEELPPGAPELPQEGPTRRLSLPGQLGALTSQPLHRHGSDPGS
SMILES,inhibition at 1.1 µM [1],inhibition at 11.1 µM [2]
CN1CCN(c2ccc(Nc3c4ccccc4nc4ccccc34)cc2)CC1,24%,75% (active)
CN(C)CCCNc1c2ccccc2nc2ccccc12,5%,31%
CCN(CC)CCNc1ccnc2cc(Cl)ccc12,18%,61% (active)
O=C(Nc1ccc(Br)cc1)Nc1cccc(Cl)c1,-5%,11% (inactive)
CN(C)CCNc1cc(-c2ccccc2)nc2ccccc12,20%,66% (active)
Cc1cc(NCCN2CCCCC2)c2ccc3ccccc3c2n1,32%,95% (active)
O=C(NCc1ccco1)C1CCN(S(=O)(=O)c2ccc(Cl)cc2)CC1,11%,38%
CCc1c(C)c(=N)c2ccccc2n1C,6%,11% (inactive)
COc1cc2cc(C(=O)Nc3ccccc3)c(N)nc2cc1OC,10%,69% (active)
Oc1ccc(-c2nc(-c3ccc4oc5ccc(-c6[nH]c(-c7ccc(O)cc7)nc6-c6ccccc6)cc5c4c3)c(-c3ccccc3)[nH]2)cc1,12%,54% (active)
CN(C)c1ccc(C=Cc2nc(=O)c3ccccc3o2)cc1,2%,0% (inactive)
CCN(CC)CCn1c(=N)n(CC(O)c2ccc(Cl)c(Cl)c2)c2ccccc21 (configuration not stated),36%,86% (active)
Cc1ccnc(NC(c2cccc(OCc3ccccc3)c2)c2ccc3cccnc3c2O)c1 (configuration not stated),6%,24% (inactive)
CCCN(CCC)CC(O)COc1ccccc1C(=O)Nc1ccccc1 (configuration not stated),57%,98%
CCN(CC)CCNc1ccnc2cc3ccccc3cc12,9%,6% (inactive)
COc1ccc(NC(=O)C2c3ccccc3C(=O)N(CC(C)C)C2c2cccs2)cc1Cl (configuration not stated),0%,24% (inactive)
Cc1cc(Nc2cccc(F)c2)nc(NCc2ccccc2)n1,11%,73% (active)
OCCNc1nc(Nc2ccc(Cl)c(Cl)c2)nc2ccccc12,4%,30%
CCOC(=O)c1cnc2ccc(OC)cc2c1Nc1ccc(N2CCN(C)CC2)cc1,15%,15% (inactive)
CCOc1cc2c(cc1OCC)C(c1cc(Cl)ccc1O)NCC2 (configuration not stated),1%,20% (inactive)
Cc1cc(C)c2c(c1)OCN(Cc1ccccc1Cl)C2,30%,88% (active)
COc1cc(OC)c(N(C)C(=O)c2cc3c(s2)-c2ccccc2S(=O)(=O)C3)cc1Cl,3%,41%
c1ccc2c(NCCc3c[nH]c4ccccc34)c3ccccc3nc2c1,64%,109%
O=C1c2ccccc2C2=Nc3ccccc3SC(c3cccc(F)c3)C12 (configuration not stated),-4%,4% (inactive)
CCOC(=O)c1cnc2c(C)cccc2c1Nc1ccc(C(C)=O)cc1,6%,39%
Cc1cc(NC(=O)C2c3ccccc3C(=O)N(CC(C)C)C2c2cccs2)no1 (configuration not stated),4%,11% (inactive)

SMILES,inhibition at 1.1 µM [1],inhibition at 11.1 µM [2]
CCOc1cc2c(cc1OCC)C(c1cc(C)c(O)c(C)c1)NCC2 (configuration not stated),13%,36%
O=C1CC(O)(C(F)(F)C(F)(F)F)Oc2ccccc21 (configuration not stated),-9%,3% (inactive)
Cc1ccc(C2CC(C(F)(F)F)n3nc(C(=O)N4CCN(C(c5ccccc5)c5ccccc5)CC4)cc3N2)cc1 (configuration not stated),5%,8% (inactive)
Cc1ccc2nc(C)cc(Nc3cccc(C(F)(F)F)c3)c2c1,48%,106% (active)
CCOc1cccc2sc(N(Cc3cccnc3)C(=O)C3CCCCC3)nc12,8%,54% (active)
CC(C)c1ccc(CNCC(O)c2ccccc2)cc1 (configuration not stated),15%,59% (active)
CC1CC(C)CN(C(=O)c2ccc(Cl)cc2Cl)C1 (configuration not stated),-3%,5% (inactive)
COc1ccccc1CNC(=O)C1c2ccccc2C(=O)N(CC(C)C)C1c1cccs1 (configuration not stated),-15%,17% (inactive)
CCOc1cc2c(cc1OCC)C(c1cc(Cl)c(O)c(OCC)c1)NCC2 (configuration not stated),1%,57% (active)
OC(CNC1CCCC1)Cn1c2ccccc2c2ccccc21 (configuration not stated),8%,55% (active)
CCc1ccc(Nc2cc(C)c3ccc(O)cc3n2)cc1,15%,78% (active)
CCN(CC)c1cc(C)c2cc(NC(=O)c3cccc(OC)c3)ccc2n1,85%,103%
COc1ccc(C(O)(CCC(C)C)C(CN2CCOCC2)c2ccc(Cl)cc2)cc1 (configuration not stated),4%,109% (active)
CCCCCCn1c(=N)n(CC(O)COc2cccc(C)c2)c2ccccc21 (configuration not stated),57%,111%
Cc1ccc(NC(=O)Nc2cccc(Cl)c2)cc1F,-7%,-1% (inactive)
CC(C)OCc1cc(CN2CCN(c3cccc(Cl)c3)CC2)c(O)c2ncccc12,65%,100%
Oc1ccc(Br)cc1CN1CCN(Cc2cccc(F)c2)CC1,-1%,18% (inactive)
COc1ccc(-c2cc(=O)oc3c4c(ccc23)OCN(Cc2ccc(F)cc2)C4)cc1,24%,16% (inactive)
CSc1ccccc1C(=O)Nc1nc(-c2ccccn2)cs1,15%,39%
CC(O)(c1ccc(Cl)cc1)C(CN1CCCCC1)c1ccccc1 (configuration not stated),40%,84% (active)
CCCCc1ccc(NS(=O)(=O)c2cc3c4c(c2)CCN4C(=O)CC3)cc1,2%,26%
CCn1c2c(c(=N)c3c1CCC3)CCCC2,48%,104% (active)
CCCOCc1cc(CN2CCN(c3cccc(Cl)c3)CC2)c(O)c2ncccc12,3%,106% (active)
CCOc1ccc2c(c1)CN(Cc1ccc(Cl)cc1)CO2,33%,99% (active)
CCOc1ccccc1CNC(=O)C1c2ccccc2C(=O)N(CC(C)C)C1c1cccs1 (configuration not stated),12%,84% (active)
CC(C)(C)c1ccc2c(c1)CN(Cc1ccc(Cl)cc1)CO2,25%,12% (inactive)

SMILES,inhibition at 1.1 µM [1],inhibition at 11.1 µM [2]
CCCCC(O)(c1ccc(Cl)cc1)C(CN1CCOCC1)c1ccc(Cl)cc1 (configuration not stated),18%,35%
c1ccc(CNc2nc(Nc3ccccc3)nc3ccccc23)cc1,17%,69% (active)
CCOC(=O)c1ccc2[nH]c(-c3ccccc3)cc(=O)c2c1,-1%,7% (inactive)
Clc1ccc2[nH]c3c(NCCCN4CCOCC4)ncnc3c2c1,29%,89% (active)
COc1ccc(Nc2nc(NCc3ccccc3)c3ccccc3n2)cc1,0%,53% (active)
Cc1cc(=O)oc2c1ccc1oc(C(=O)c3ccccc3)c(C)c12,-6%,6% (inactive)
COc1ccc2c(c1OC)C(=O)N1c3ccccc3N=C(c3ccc(C)cc3)CC21 (configuration not stated),25%,10% (inactive)
Oc1c(CN2CCN(c3ccccc3F)CC2)cc(Br)c2cccnc12,-9%,46%
OC(CNCc1ccccc1)Cn1c2ccccc2c2ccccc21 (configuration not stated),41%,94% (active)
CCOc1ccc(Nc2c3ccccc3nc3ccccc23)cc1,68%,112%
CCOc1ccc2nc(C)cc(Nc3ccc(Br)cc3)c2c1,3%,16% (inactive)
COc1ccc(C)c2sc(N(Cc3cccnc3)C(=O)c3ccc(C#N)cc3)nc12,1%,69% (active)
COc1ccc(C2Sc3ccccc3N=C3C2=C(O)c2ccccc23)cc1 (configuration not stated),-2%,26%
CCCCCCC(O)(c1ccc(F)cc1)C(CN1CCOCC1)c1ccccc1 (configuration not stated),0%,71% (active)
CCOc1c(Br)cc(C2C(C(=O)OC)=CN(C)C=C2C(=O)OC)cc1OC,3%,21% (inactive)
CCCN(CCC)CCCNC(=O)c1cc2c(-c3ccc(OC)c(OC)c3)nn(C)c2s1,6%,47%
Cc1cc(N2CCN(C3CCCC3)CC2)n2c(nc3ccccc32)c1C#N,-3%,45%
CCCCCn1c(=N)n(CC(O)COc2cccc(C)c2)c2ccccc21 (configuration not stated),59%,101%
Cc1ccc(Nc2nc(NCCO)c3ccccc3n2)cc1C,> 12%,81% (active)
COc1ccc2sc(N(Cc3cccnc3)C(=O)c3ccc(C#N)cc3)nc2c1,14%,82% (active)
CC1CCCCN1CCCNC(=O)c1ccc2c(c1)sc1nc(-c3ccc(F)cc3)cn12 (configuration not stated),64%,81%
COc1ccc(NC(=O)C2c3ccccc3C(=O)N(CC(C)C)C2c2cccs2)cc1 (configuration not stated),7%,18% (inactive)
CCOC(=O)C1=CN(C)C=C(C(=O)OCC)C1c1cc(Br)c(OCC)c(OC)c1,16%,54% (active)
CN1CCN(c2nc(Nc3ccc(O)cc3)nc3ccccc23)CC1,31%,31%
